# Laboratory results as given in patent US20190076392A1, “METHODS FOR TREATING CANCER” (Boston Biomedical, Inc., priority 2016, published 2019).
# Key:
# human p-STAT3 = biological target: T1, human p-STAT3 (Homo sapiens, UniProt P40763); experiment: Immunofluorescence staining of xenograft tumor cells for p-STAT3; format: in vivo; details: human colon cancer xenograft tumor (SW480) in nude mice; treated vs control
# T1 construct: p-STAT3 and β-CATENIN protein levels in human colon cancer xenograft tumor (SW480) in nude mice; endogenous in cells; host or cells: SW480 human colon cancer xenograft tumor in nude mice
# Description: (§1) The effects of 2-acetylnaphtho[2,3-b]furan-4,9-dione, a compound of formula (I), to tumor cells were studied by analyzing the tumor cells treated with the compound or without the compound (control) with immunofluorescence staining using antibodies specific for human p-STAT3 and 13-CATENIN.
# β-CATENIN = experiment: Immunofluorescence staining of xenograft tumor cells for β-CATENIN; format: in vivo; details: human colon cancer xenograft tumor (SW480) in nude mice; treated vs control
# Description: as §1
# [1] = test system: Paca-2 human pancreatic cancer; experiment: Human PDAC xenograft tumor (Paca-2) in nude mice; format: in vivo
# Description: FIGS. 5A and 5B show an exemplary effect of a 2-acetylnaphtho[2,3-b]furan-4,9-dione and gemcitabine treatment on pancreatic ductal adenocarcinoma (PDAC) in an xenograft tumor mouse model according to certain embodiments of the present disclosure.
# The effects of 2-acetylnaphtho[2,3-b]furan-4,9-dione, a compound of formula (I), on a human PDAC xenograft tumor (Paca-2) in nude mice were studied. Specifically, immunosuppressed mice with Paca-2 human pancreatic cancer were given 2-acetylnaphtho[2,3-b]furan-4,9-dione (20 mg/kg) or vehicle control IP daily or gemcitabine (120 mg/kg) or vehicle control IP every 3 days. Tumor size was evaluated periodically during treatment. Each point represents the mean+SEM of five tumors.
# [2] = test system: human pancreatic adenocarcinoma (Panc-1); experiment: Human pancreatic adenocarcinoma (Panc-1) xenograft in immunosuppressed mice; format: in vivo
# Description: FIG. 6 show an exemplary effect of 2-acetylnaphtho[2,3-b]furan-4,9-dione, gemcitabine (Gemzar), and the combination of 2-acetylnaphtho[2,3-b]furan-4,9-dione and gemcitabine treatment on tumor volume in an xenograft tumor mouse model according to certain embodiments of the present disclosure.
# The effects of 2-acetylnaphtho[2,3-b]furan-4,9-dione, a compound of formula (I), gemcitabine, and a combination of 2-acetylnaphtho[2,3-b]furan-4,9-dione and gemcitabine were studied. Specifically, immunosuppressed mice with established human pancreatic adenocarcinoma (Panc-1) were treated with vehicle control, 2-acetylnaphtho[2,3-b]furan-4,9-dione (100 mg/kg, PO, bid), gemcitabine (Gemzar, 80 mg/kg, IV, q3d), or the combination of 2-acetylnaphtho[2,3-b]furan-4,9-dione and gemcitabine. Tumor size was evaluated periodically during treatment. Each point represents the mean+SEM of five tumors.
# [3] = Phase Ib study in mPDAC patients, safety and adverse events; format: in vivo, human; details: in combination with gemcitabine and nab-paclitaxel
# Description: The effects of 2-acetylnaphtho[2,3-b]furan-4,9-dione, a compound of formula (I), in combination with gemcitabine and nab-paclitaxel in patients with metastatic pancreatic ductal adenocarcinoma (mPDAC) were studied in a Phase Ib extension, open label, multi-center study.
# In that clinical study, the safety, tolerability and the recommended Phase II dose (RP2D), PK profile, and signs of anti-cancer activity of 2-acetylnaphtho[2,3-b]furan-4,9-dione in combination with nab-paclitaxel and gemcitabine were assessed in adult patients with metastatic pancreatic cancer. In each treatment cycle, 2-acetylnaphtho[2,3-b]furan-4,9-dione was administered at 240 mg BID for 4 weeks in combination with nab-paclitaxel 125 mg/m^2 and gemcitabine 1000 mg/m^2 administered weekly for 3 out of the 4 weeks. The treatment continued in 28-day cycles.
# The patients received continuous oral administration of BBI-608 twice daily in 28 day cycles. A standard gemcitabine and nab-paclitaxel regimen was administered on days 1, 8 and 15 of every 28 day study cycle. Specifically, BBI-608 was administered at 240 mg BID in combination with gemcitabine 1000 mg/m^2 and nab-paclitaxel 125 mg/m^2 administered weekly for 3 out every 4 weeks until progression of disease, unacceptable toxicity, or another discontinuation criterion was met. Pharmacokinetics and pharmacodynamics were evaluated and objective tumor response was assessed every 8 weeks using Response Evaluation Criteria In Solid Tumors (RECIST 1.1).
# STAT3 = experiment: Clinical trials, overall survival by STAT3/pSTAT3 level; format: in vivo, human; details: patients with higher expression levels of STAT3 (pSTAT3 before treatment), at least in CRC patients
# Description: Thus, the higher the level of pSTAT3 found in a cancer patient before treatment, at least in CRC patients, the higher the overall survival (OS) upon administering a treatment comprising at least one compound of formula (I).
# STAT3 pathway = details: according to U.S. Pat. No. 8,877,803; read-out: STAT3 pathway activity, cellular IC50; cited from earlier work
# T1 sequence (P40763 whole entry): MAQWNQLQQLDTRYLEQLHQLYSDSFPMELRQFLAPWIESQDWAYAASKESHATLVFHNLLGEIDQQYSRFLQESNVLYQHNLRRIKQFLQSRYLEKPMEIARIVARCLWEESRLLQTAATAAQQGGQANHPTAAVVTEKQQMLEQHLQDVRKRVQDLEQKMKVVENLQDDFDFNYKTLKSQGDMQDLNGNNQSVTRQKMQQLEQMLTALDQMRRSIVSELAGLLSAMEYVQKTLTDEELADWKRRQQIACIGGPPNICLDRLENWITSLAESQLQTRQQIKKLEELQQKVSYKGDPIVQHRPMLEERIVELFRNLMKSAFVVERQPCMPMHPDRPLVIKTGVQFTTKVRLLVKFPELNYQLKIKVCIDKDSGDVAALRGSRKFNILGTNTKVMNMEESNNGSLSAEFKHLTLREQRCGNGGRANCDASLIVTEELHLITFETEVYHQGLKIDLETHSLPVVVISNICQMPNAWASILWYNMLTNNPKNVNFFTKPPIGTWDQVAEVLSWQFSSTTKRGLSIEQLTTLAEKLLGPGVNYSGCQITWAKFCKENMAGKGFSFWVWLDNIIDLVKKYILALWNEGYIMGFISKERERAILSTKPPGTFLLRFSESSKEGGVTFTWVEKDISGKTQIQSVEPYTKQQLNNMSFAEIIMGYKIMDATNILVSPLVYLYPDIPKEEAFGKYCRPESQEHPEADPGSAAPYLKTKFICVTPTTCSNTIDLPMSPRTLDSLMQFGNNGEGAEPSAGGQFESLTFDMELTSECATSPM
tumor cells with positive staining for human p-STAT3 (human p-STAT3),SMILES,tumor cells with positive staining for β-CATENIN (β-CATENIN),tumor growth (tumor size) ([1]; 20 mg/kg IP daily),"tumor growth (tumor size) ([2]; 100 mg/kg, PO, bid)","grade 3 AEs related to napabucasin, number of patients [3] [patients]","grade 3 dehydration related to napabucasin, number of patients [3] [patient]","grade 3 diarrhea related to napabucasin, number of patients [3] [patient]","grade 3 fatigue related to napabucasin, number of patients [3] [patients]","grade 3 hypokalemia related to napabucasin, number of patients [3] [patient]","grade 3 nausea related to napabucasin, number of patients [3] [patient]",most common adverse events (AEs) related to napabucasin [3],overall survival after treatment (STAT3),IC50 (STAT3 pathway) [nM],tumor growth (tumor size) ([1]; 120 mg/kg IP every 3 days),"tumor growth (tumor size) ([2]; Gemzar, 80 mg/kg, IV, q3d)"
effectively inhibited,"CC(=O)c1cc2c(o1)C(=O)c1ccccc1C2=O [2-acetylnaphtho[2,3-b]furan-4,9-dione]",effectively inhibited,effective at inhibiting tumor growth,certain effects in inhibiting tumor growth,9,1,1,5,1,1,"grade 1 diarrhea, abdominal pain, nausea, and fatigue",prolonged overall survival,~250,,
,"Nc1ccn([C@@H]2O[C@H](CO)[C@@H](O)C2(F)F)c(=O)n1 [gemcitabine, reference compound]",,,,,,,,,,,,,only a marginal effect on tumor growth,certain effects in inhibiting tumor growth
